Test results: publication PMC5856125 (Journal of the American Chemical Society, 2018)

Target: lipoteichoic acid synthase (LtaS) (Staphylococcus aureus, UniProt Q2G093)
Test: LTA polymerization in proteoliposomes with purified LtaS, anti-LTA blot
Assay type: biochemical

lipoteichoic acid synthase (LtaS), sequence (Q2G093 whole entry): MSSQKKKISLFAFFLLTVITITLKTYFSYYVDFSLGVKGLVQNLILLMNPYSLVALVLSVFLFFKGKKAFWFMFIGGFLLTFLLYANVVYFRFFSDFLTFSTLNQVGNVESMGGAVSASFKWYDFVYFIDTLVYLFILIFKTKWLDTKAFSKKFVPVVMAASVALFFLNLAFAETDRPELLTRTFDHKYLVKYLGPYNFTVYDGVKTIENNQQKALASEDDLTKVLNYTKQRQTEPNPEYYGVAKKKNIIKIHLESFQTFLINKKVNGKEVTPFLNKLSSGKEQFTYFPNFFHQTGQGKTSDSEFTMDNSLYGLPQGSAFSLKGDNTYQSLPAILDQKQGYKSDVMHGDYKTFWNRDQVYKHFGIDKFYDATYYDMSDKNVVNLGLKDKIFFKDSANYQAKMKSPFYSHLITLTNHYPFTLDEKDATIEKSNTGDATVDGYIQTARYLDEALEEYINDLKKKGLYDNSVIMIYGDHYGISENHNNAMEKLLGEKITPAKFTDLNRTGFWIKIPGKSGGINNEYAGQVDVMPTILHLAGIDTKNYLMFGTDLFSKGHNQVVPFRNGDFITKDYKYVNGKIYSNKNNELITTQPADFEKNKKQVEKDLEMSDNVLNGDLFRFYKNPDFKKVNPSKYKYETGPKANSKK

`Nc1c(/N=N/c2ccc(-c3ccc(/N=N/c4cc(S(=O)(=O)O)c5ccccc5c4N)cc3)cc2)cc(S(=O)(=O)O)c2ccccc12` [compound 1, Congo red] gave an IC50 of ~2 µM.
